From the NIST ThermoML archive (doi:10.1021/je0342668)

Test: molar heat capacity at constant pressure; xn = mol fraction of the nth substance listed
Settings: Liquid, x2 = 0.568

CCCO [propan-1-ol] + O
Settings | molar heat capacity at constant pressure [J/K/mol]
262.42 K | 106.61
264.63 K | 107.35
266.82 K | 108.31
269.02 K | 109.17
271.19 K | 109.88
273.35 K | 110.58
275.5 K | 111.1
277.64 K | 111.89
279.76 K | 112.63
281.87 K | 113.37
283.94 K | 114.17
286 K | 114.78
288.06 K | 115.38
290.08 K | 116.09
292.07 K | 116.6
294.06 K | 117.18
296.02 K | 117.95
298.02 K | 118.53
300.05 K | 119.17
302.07 K | 119.94
304.12 K | 120.61
306.15 K | 121.22
308.18 K | 121.92
310.21 K | 122.56
312.24 K | 123
314.26 K | 123.59
316.27 K | 124.29
318.28 K | 124.81
